Measured values reported in patent US9682995B2, “Amino-substituted isothiazoles” (BAYER PHARMA AKTIENGESELLSCHAFT, priority 2013, dated 2017).

Legend:
CDK2/CycE = CDK2/CycE (Homo sapiens (Human), UniProt P24941); experiment: CDK2/CycE kinase assay (TR-FRET); format: biochemical; details: 10 μM ATP; read-out: CDK2 avg (IC50 [mol/l])
Method in brief: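 GST-tagged human CDK2 and GST-CycE from Sf9 cells (~130 ng/ml) were preincubated with compound for 15 min at 22 °C. Reaction with 10 μM ATP and 0.75 μM biotinylated peptide (final) ran 25 min at 22 °C, pH 8.0. Phospho-peptide was read by TR-FRET (665/620 nm ratio, anti-pRB antibody, Eu donor) and normalised to no-enzyme and no-inhibitor controls.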

human kinase Mps-1 = human kinase Mps-1 (Homo sapiens (Human), UniProt P33981); experiment: Mps-1 kinase assay (TR-FRET); format: biochemical; details: 10 μM ATP; read-out: Mps1 avg (IC50 [mol/l])
human kinase Mps-1, sequence (P33981 whole entry): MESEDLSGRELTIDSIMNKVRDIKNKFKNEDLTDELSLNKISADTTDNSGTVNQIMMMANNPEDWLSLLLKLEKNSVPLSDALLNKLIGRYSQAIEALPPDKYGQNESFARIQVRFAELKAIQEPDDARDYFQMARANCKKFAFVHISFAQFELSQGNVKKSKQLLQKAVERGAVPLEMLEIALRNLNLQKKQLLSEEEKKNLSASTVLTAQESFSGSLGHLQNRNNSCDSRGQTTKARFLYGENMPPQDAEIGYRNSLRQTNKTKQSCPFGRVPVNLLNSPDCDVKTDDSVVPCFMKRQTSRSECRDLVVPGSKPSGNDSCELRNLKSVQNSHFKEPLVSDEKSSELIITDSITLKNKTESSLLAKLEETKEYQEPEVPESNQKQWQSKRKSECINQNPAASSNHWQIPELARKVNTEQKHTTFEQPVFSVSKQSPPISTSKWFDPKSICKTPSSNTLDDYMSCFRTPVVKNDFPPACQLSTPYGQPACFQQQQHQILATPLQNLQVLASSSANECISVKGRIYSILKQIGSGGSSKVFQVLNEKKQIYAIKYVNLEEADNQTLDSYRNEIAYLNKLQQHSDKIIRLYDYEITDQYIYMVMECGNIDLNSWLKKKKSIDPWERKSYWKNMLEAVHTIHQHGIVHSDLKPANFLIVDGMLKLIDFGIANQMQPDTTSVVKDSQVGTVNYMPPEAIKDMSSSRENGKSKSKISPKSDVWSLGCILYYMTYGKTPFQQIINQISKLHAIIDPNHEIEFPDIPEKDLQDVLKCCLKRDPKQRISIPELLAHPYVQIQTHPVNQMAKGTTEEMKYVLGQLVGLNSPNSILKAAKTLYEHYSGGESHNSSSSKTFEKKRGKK
Method in brief: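 GST-tagged full-length human Mps-1 (~0.5 nM) preincubated 15 min with compound, then reacted 60 min at 22 °C with 10 μM ATP and 1 μM biotinylated peptide in Hepes pH 7.7 buffer. Phosphoproduct detected by TR-FRET (Eu anti-phospho-Ser/Thr, SA-XLent); 665/620 ratio normalised to no-inhibitor and no-enzyme controls.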

SMILES | IC50 (CDK2/CycE) | IC50 (human kinase Mps-1)
CCc1ccccc1NC(=O)c1c(C)nsc1Nc1cc(C(F)(F)F)ccn1 [Example 18, N-(2-Ethylphenyl)-3-methyl-5-{[4-(trifluoromethyl)pyridin-2-yl]amino}-1,2-thiazole-4-carboxamide] | > 20 µM | > 20 µM
COc1ccc(NC(=O)c2c(C)nsc2Nc2ccc(C#N)cn2)cn1 [Example 39, 5-[(5-Cyanopyridin-2-yl)amino]-N-(6-methoxypyridin-3-yl)-3-methyl-1,2-thiazole-4-carboxamide] | > 20 µM | > 20 µM
CCOC(=O)c1sc(Nc2snc(C)c2C(=O)Nc2ccccc2CC)nc1C [Example 26, Ethyl 2-({4-[(2-ethylphenyl)carbamoyl]-3-methyl-1,2-thiazol-5-yl}amino)-4-methyl-1,3-thiazole-5-carboxylate] | > 20 µM | > 20 µM
Cc1nsc(Nc2cnc3ccccc3n2)c1C(=O)Nc1ccc(F)c(F)c1 [Example 50, N-(3,4-Difluorophenyl)-3-methyl-5-(quinoxalin-2-ylamino)-1,2-thiazole-4-carboxamide] | > 20 µM | > 20 µM
COc1ccc(NC(=O)c2c(C)nsc2Nc2cnc3cccc(C)c3n2)cn1 [Example 22, N-(6-methoxypyridin-3-yl)-3-methyl-5-[(8-methylquinoxalin-2-yl)amino]-1,2-thiazole-4-carboxamide] | > 20 µM | > 20 µM
CCc1ccccc1NC(=O)c1c(C)nsc1Nc1ncnc2ccccc12 [Example 10, N-(2-Ethylphenyl)-3-methyl-5-(quinazolin-4-ylamino)-1,2-thiazole-4-carboxamide] | > 20 µM | > 20 µM
Cc1nsc(Nc2cnc3ccccc3n2)c1C(=O)Nc1ccc(Cl)c(F)c1 [Example 40, N-(4-Chloro-3-fluorophenyl)-3-methyl-5-(quinoxalin-2-ylamino)-1,2-thiazole-4-carboxamide] | > 20 µM | > 20 µM
Cc1nsc(Nc2ncc(C(=O)N(C)C)s2)c1C(=O)Nc1ccc(F)c(F)c1 [Example 49, N-(3,4-Difluorophenyl)-5-{[5-(dimethylcarbamoyl)-1,3-thiazol-2-yl]amino}-3-methyl-1,2-thiazole-4-carboxamide] | > 20 µM | > 20 µM
COc1ccc(NC(=O)c2c(C)nsc2Nc2cnc3ccc(F)cc3n2)cn1 [Example 44, 5-[(7-Fluoroquinoxalin-2-yl)amino]-N-(6-methoxypyridin-3-yl)-3-methyl-1,2-thiazole-4-carboxamide] | > 20 µM | > 20 µM

Next, values leading:

IC50 (CDK2/CycE) | IC50 (human kinase Mps-1) | SMILES
> 20 µM | > 20 µM | COC(=O)c1cncc(Nc2snc(C)c2C(=O)Nc2ccc(OC)nc2)n1 [Example 101, Methyl 6-({4-[(6-methoxypyridin-3-yl)carbamoyl]-3-methyl-1,2-thiazol-5-yl}amino)pyrazine-2-carboxylate]
> 20 µM | > 20 µM | Cc1nsc(Nc2cncc(C(=O)N3CCOCC3)n2)c1C(=O)Nc1ccc(F)c(F)c1 [Example 107, N-(3,4-Difluorophenyl)-3-methyl-5-{[6-(morpholin-4-ylcarbonyl)pyrazin-2-yl]amino}-1,2-thiazole-4-carboxamide]
> 20 µM | > 20 µM | COc1ccc(Oc2ccc(NC(=O)c3c(C)nsc3Nc3cc(C#N)ccn3)cn2)cc1 [Example 117, 5-[(4-Cyanopyridin-2-yl)amino]-N-[6-(4-methoxyphenoxy)pyridin-3-yl]-3-methyl-1,2-thiazole-4-carboxamide]
> 20 µM | 3.6 µM | COc1ccc(Oc2ccc(NC(=O)c3c(C)nsc3Nc3cnc4ccccc4n3)cn2)cc1 [Example 116, N-[6-(4-Methoxyphenoxy)pyridin-3-yl]-3-methyl-5-(quinoxaline-2-ylamino)-1,2-thiazole-4-carboxamide]
> 20 µM | 18 µM | Cc1nsc(Nc2ccn3nccc3n2)c1C(=O)Nc1ccc(F)c(F)c1 [Example 57, N-(3,4-Difluorophenyl)-3-methyl-5-(pyrazolo[1,5-a]pyrimidin-5-ylamino)-1,2-thiazole-4-carboxamide]
